Laboratory results published in paper PMC10895676, “Antiviral Activity of Lipophilic Nucleoside Tetraphosphate Compounds” (Journal of Medicinal Chemistry, 2024).
Where two headings read alike, the source gives them in different places.

Key:
[1] = Chemical hydrolysis in aqueous buffers (PBS pH 7.3 / 8.0, citrate buffer pH 2.0), RP18-HPLC; type: physicochemical; conditions: for half-life: 25 mM citrate buffer, pH 2.0, 37 °C; for half-life at 1.9 mM: phosphate buffered saline
In short: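 Compound incubated at 37 °C in PBS pH 7.3 or 8.0, or citrate/NaCl/HCl buffer adjusted to pH 2.0 with NaOH. Aliquots sampled over time, stored at −30 °C, and hydrolysis products quantified by RP18-HPLC with UV detection.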

HIV-1 (HE) = experiment: Anti-HIV replication assay, HIV-1 (HE) in wild-type CEM/0 cells; type: cell-based; conditions: Human immunodeficiency virus 1, CCRF-CEM, read-out: HIV-1 (HE) EC50
In short: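 Wild-type CEM/0 CD4+ T-cells (~3 × 10^5 cells/mL) infected with 100 CCID50/mL HIV-1(HE) alongside compound dilutions, incubated 4–5 days at 37 °C. Syncytia (giant cell) formation scored microscopically; EC50 is the concentration inhibiting HIV-induced giant cell formation by 50%.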

HIV-2 (ROD) = experiment: Anti-HIV replication assay, HIV-2 (ROD) in thymidine kinase-deficient CEM/TK– cells; type: cell-based; conditions: for selectivity index (SI): CC50/EC50, HIV-2 (ROD) in CEM/TK– cells; for EC50: read-out: CEM/TK– HIV-2 (ROD) EC50; for improvement of antiviral activity as compared to the parent d4T: HIV-2, CEM/TK– cells
In short: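 Wild-type CEM/0 or thymidine kinase-deficient CEM/TK– T-cells (~3 × 10^5 cells/mL) were infected with 100 CCID50/mL HIV-2(ROD) in the presence of compound dilutions. After 4–5 days at 37 °C, virus-induced cytopathicity and syncytium formation were scored microscopically.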

[2] = Cytotoxicity, inhibition of CEM cell proliferation; type: cell-based; conditions: human, CEM cells (CD4+ T-cells), read-out: toxicity CC50
[3] = Cytotoxicity, inhibition of CEM/TK– cell proliferation; type: cell-based; conditions: human, CEM/TK– cells (CD4+ T-cells), read-out: toxicity CC50
[4] = Hydrolysis in citrate-stabilized human plasma; type: in vitro ADME; conditions: 37 °C, read-out: t1/2 in citrate-stabilized human plasma (converted)
Procedure: Finally, the supernatant was divided into aliquots and frozen at −80 °C.
Two different samples, including 10 μL of water and 10 μL of 6.0 mM hydrolysis solution, were prepared in 2 mL Eppendorf vials. Next, 50 μL of human CEM cell extracts or 50 μL of human citrate plasma were added to the mixture, the reaction was started, and the mixture was incubated at 37 °C for different time periods. The reactions were stopped by the addition of 150 μL of MeOH. The resulting suspension was kept on ice for 5 min, followed by defrosting and centrifugation at 14,000 rpm (Heraeus, Biofuge Pico) for 22 min. The supernatants (80 or 60 μL) were directly injected into HPLC. The calculation of t1/2 was performed analogously to that for the chemical hydrolysis studies.

[5] = 25 mM PBS, pH 7.3, 37 °C, read-out: PBS pH 7.3 t1/2 (converted)
[6] = PBS, pH 8.0, 37 °C, read-out: PBS pH 8.0 t1/2 (converted)
[7] = wild-type CEM/0 cells, mean ± SD, n = 2–3
[8] = Human immunodeficiency virus 2, CEM/TK– cells, mean ± SD, n = 2–3

SMILES	half-life [1] [h]	half-life at 1.9 mM [1, 5] [h]	half-life at 1.9 mM [1, 6] [h]	EC50 (HIV-1 (HE); [7]) [µM]	selectivity index (SI) (HIV-2 (ROD))	EC50 (HIV-2 (ROD); [8]) [µM]	CC50 [2] [µM]	CC50 [3] [µM]	half-life at 0.86 mM [4] [h]	EC50 (HIV-1 (HE)) [µM]	improvement of antiviral activity as compared to the parent d4T (HIV-2 (ROD)) [fold]	EC50 (HIV-2 (ROD); Human immunodeficiency virus 2, CEM-TK(-)) [µM]
Cc1cn([C@H]2C=C[C@@H](COP(=O)(O)OP(=O)(O)OP(=O)(O)OP(=O)(O)O)O2)c(=O)[nH]c1=O [d4T4P, 2′,3′-didehydro-2′,3′-dideoxythymidine-5′-tetraphosphate]	> 150	534	> 150	0.42 ± 0.16	>3	33.8 ± 21.3	> 100	> 100				
CCCCCCCCCCCCCCCCCCP(=O)(O)OP(=O)(O)OP(=O)(O)OP(=O)(O)OC[C@@H]1C=C[C@H](n2cc(C)c(=O)[nH]c2=O)O1 [compound 24, δ-C-(Alkyl-C18)-d4T4P]		> 1000		0.43 ± 0.37	30	1.35 ± 0.63	23.2	40.1	> 22			
CCCCCCCCCCCCCCCCCCP(=O)(OCCCC)OP(=O)(O)OP(=O)(O)OP(=O)(O)OC[C@@H]1C=C[C@H](n2cc(C)c(=O)[nH]c2=O)O1 (stereo partly drawn) [5a, δ-(Alkyl-C4)-δ-C-(alkyl-C18)-d4T4P]	> 150	> 1000	> 200				44.6	49.8	> 22	0.33 ± 0.09	> 1100	0.043 ± 0.026
CCCCCCCCCCCCCCCCCCOP(=O)(O)OP(=O)(O)OP(=O)(O)OP(=O)(O)OC[C@@H]1C=C[C@H](n2cc(C)c(=O)[nH]c2=O)O1 [compound 20, δ-(Alkyl-C18)-d4T4P]		132		0.71 ± 0.26	>21	4.6 ± 0.33	> 100	> 100				
CCCCCCCCCCCCCCCCCCOP(=O)(OCCCC)OP(=O)(O)OP(=O)(O)OP(=O)(O)OC[C@@H]1C=C[C@H](n2cc(C)c(=O)[nH]c2=O)O1 (stereo partly drawn) [4d, δ-(Alkyl-C4; alkyl-C18)-d4T4P]	66	251	> 100	0.11 ± 0.01	260	0.18 ± 0.15	43.9	46.8			> 270	
